In patent US8927579B2, “Male contraceptive” (priority 2007, dated 2015):
Where a name gives a salt, the structure may show the parent alone.

Tests used:
[1] = tested on: longitudinal muscle of human vas deferens; assay: IC50 against contractions evoked by high K+ (120 mM) in the presence of FPL 64176, longitudinal muscle strips; conditions: Homo sapiens; contractions evoked by K+ (120 mM) in the presence of FPL 64176 (1 μM); means ± S.E.M.
Source text: (§1) Human vas deferens specimens were obtained after elective vasectomies of healthy fertile men. College ethical approval and the consent of patients were obtained. The specimens were placed in ice-cold Krebs' medium, dissected-free of connective tissue/blood vessels and cut longitudinally into strips (longitudinal muscle preparations; 5-10 mm long & 1 mm wide) or transversely into rings (circular muscle preparations; 3 mm in length). The longitudinal and circular muscle preparations were then set up for tension recording (resting tension 5-7 mN) in a Perspex chamber superfused at 2 ml per min with Krebs' medium (36° C.) composed of (mM): NaCl, 118.8; NaHCO3, 25; KCl, 4.7; CaCl2.2H2O, 2.5; KH2PO4, 1.2; MgSO4.7H2O, 1.2; glucose, 11.1; ascorbic acid 0.1 and continuously gassed with 95% O2 and 5% CO2. Contractile responses were recorded via a Harvard-type force-displacement transducer. The analog signals were digitised using CIO-Das 16/Jr data acquisition software (Amplicon Liveline, Brighton, UK) and re-plotted on a microcomputer.
(§2) Tissues were equilibrated for 180 min in Krebs' medium containing inhibitors of extraneuronal and neuronal reuptake of noradrenaline, oestradiol (1 μM) and desipramine (0.1 μM) respectively, inhibitors of catechol-O-methyltransferase and monoamine oxidase, tropolone (10 μM) and iproniazid (10 μM) respectively and the β-adrenoceptor blocker, propranolol (1 μM). At the end of the equilibration period, the tissues were stimulated with noradrenaline (100 μM). […] After a contact time of 30-40 min in this medium, different experimental protocols (described below) were adopted in order to • (a) Elucidate the contractile actions of L-type Ca^2+ agonists such as FPL 64176 or Bay K 8644. In these experiments, tissues were exposed to FPL 64176 (0.1-10 μM added cumulatively) or in separate experiments Bay K 8644 (0.1-10 μM added cumulatively). • (b) Investigate the effects of various diphenylalkylamines and conventional L-type Ca^2+ antagonists (methoxyverapamil or nifedipine) on contractions evoked by high concentrations of extracellular potassium (high [K^+]o) in the presence of L-type Ca^2+ agonists, FPL 64176 (1 μM) or Bay K 8644 (1 μM). In this protocol, tissues were stimulated with high [K^+]O (10, 30 and 120 mM at 10-15 min intervals) in normal Krebs' medium, then exposed to L-type Ca^2+ agonists for 20-30 min and subsequently stimulated with high [K^+]O (10, 30 and 120 mM) in the presence of the drugs. These provided the initial responses. Following this and in the continuous presence of the L-type Ca^2+ agonists, the tissues were exposed additionally to L-type Ca^2+ antagonists (conventional or diphenylalkylamines) or drug-free vehicle medium. After contact times of 25-50 min the tissues were stimulated, first with high [K^+]O (either 30 mM or 120 mM) in order to take account of the well-documented use-dependent action of the diphenylalkylamine Ca^2+ antagonists. Following recovery from the test contraction and after a further 30-40 min, the tissues were then stimulated with high [K^+]o (10, 30 and 120 mM). This protocol is illustrated in FIGS. 3 and 4. The resulting contractions were measured (see below) and expressed as a percentage of corresponding initial responses to high [K^+]o evoked in the presence of L-type Ca^2+ agonists (i.e. before exposure to L-type Ca^2+ antagonists). […] Subsequent analysis (see below) was between contractions of drug-treated tissues and time-matched controls • (c) Determine the inhibitory potencies (IC50 values) of various diphenylalkylamines and phenothiazines and conventional L-type Ca^2+ antagonists (nifedipine and methoxyverapamil) against contractions evoked in longitudinal and circular muscle of human vas deferens by high [K^+]o (120 mM) in the presence of FPL 64176. In these experiments, tissues were stimulated with high [K^+]o (120 mM); sequentially in normal Krebs' medium and after 25-30 min exposure to the L-type Ca^2+ agonist, FPL 64176, (1 μM, Initial response). […]

[2] = tested on: circular muscle of human vas deferens; assay: IC50 against contractions evoked by high K+ (120 mM) in the presence of FPL 64176, circular muscle rings; conditions: Homo sapiens; contractions evoked by K+ (120 mM) in the presence of FPL 64176 (1 μM); means ± S.E.M.
Source text: as §1, §2

[3] = tested on: circular muscle of human vas deferens; assay: Inhibition at fixed concentration of contractions evoked by high K+ in the presence of FPL 64176, circular muscle; conditions: [K+]o 30 mM in the presence of FPL 64176 (1.0 μM); drug 10 μM; hydrochloride
Source text: as §1
Tissues were equilibrated for 180 min in Krebs' medium containing inhibitors of extraneuronal and neuronal reuptake of noradrenaline, oestradiol (1 μM) and desipramine (0.1 μM) respectively, inhibitors of catechol-O-methyltransferase and monoamine oxidase, tropolone (10 μM) and iproniazid (10 μM) respectively and the β-adrenoceptor blocker, propranolol (1 μM). At the end of the equilibration period, the tissues were stimulated with noradrenaline (100 μM). […] After a contact time of 30-40 min in this medium, different experimental protocols (described below) were adopted in order to • (a) Elucidate the contractile actions of L-type Ca^2+ agonists such as FPL 64176 or Bay K 8644. In these experiments, tissues were exposed to FPL 64176 (0.1-10 μM added cumulatively) or in separate experiments Bay K 8644 (0.1-10 μM added cumulatively). • (b) Investigate the effects of various diphenylalkylamines and conventional L-type Ca^2+ antagonists (methoxyverapamil or nifedipine) on contractions evoked by high concentrations of extracellular potassium (high [K^+]o) in the presence of L-type Ca^2+ agonists, FPL 64176 (1 μM) or Bay K 8644 (1 μM). In this protocol, tissues were stimulated with high [K^+]O (10, 30 and 120 mM at 10-15 min intervals) in normal Krebs' medium, then exposed to L-type Ca^2+ agonists for 20-30 min and subsequently stimulated with high [K^+]O (10, 30 and 120 mM) in the presence of the drugs. These provided the initial responses. Following this and in the continuous presence of the L-type Ca^2+ agonists, the tissues were exposed additionally to L-type Ca^2+ antagonists (conventional or diphenylalkylamines) or drug-free vehicle medium. After contact times of 25-50 min the tissues were stimulated, first with high [K^+]O (either 30 mM or 120 mM) in order to take account of the well-documented use-dependent action of the diphenylalkylamine Ca^2+ antagonists. Following recovery from the test contraction and after a further 30-40 min, the tissues were then stimulated with high [K^+]o (10, 30 and 120 mM). This protocol is illustrated in FIGS. 3 and 4. The resulting contractions were measured (see below) and expressed as a percentage of corresponding initial responses to high [K^+]o evoked in the presence of L-type Ca^2+ agonists (i.e. before exposure to L-type Ca^2+ antagonists). […]

[4] = tested on: longitudinal muscle of human vas deferens; assay: Inhibition of contractions evoked by high K+ in the presence of Bay K 8644, longitudinal muscle; conditions: [K+]o 30 mM & 120 mM in the presence of Bay K 8644 (1 μM)
Protocol: (§3) Human vas deferens specimens were obtained after elective vasectomies of healthy fertile men. College ethical approval and the consent of patients were obtained. The specimens were placed in ice-cold Krebs' medium, dissected-free of connective tissue/blood vessels and cut longitudinally into strips (longitudinal muscle preparations; 5-10 mm long & 1 mm wide) or transversely into rings (circular muscle preparations; 3 mm in length). […] Contractile responses were recorded via a Harvard-type force-displacement transducer. […]
(§4) Tissues were equilibrated for 180 min in Krebs' medium containing inhibitors of extraneuronal and neuronal reuptake of noradrenaline, oestradiol (1 μM) and desipramine (0.1 μM) respectively, inhibitors of catechol-O-methyltransferase and monoamine oxidase, tropolone (10 μM) and iproniazid (10 μM) respectively and the β-adrenoceptor blocker, propranolol (1 μM). […] The resulting contractions were measured (see below) and expressed as a percentage of corresponding initial responses to high [K^+]o evoked in the presence of L-type Ca^2+ agonists (i.e. before exposure to L-type Ca^2+ antagonists). […]

[5] = tested on: circular muscle of human vas deferens; assay: Inhibition of contractions evoked by high K+ in the presence of Bay K 8644, circular muscle; conditions: [K+]o 30 mM & 120 mM in the presence of Bay K 8644 (1 μM)
Protocol: as §3, §4

Row | Structure (SMILES) | IC50 [1] | IC50 [2] | inhibition of circular muscle contractions compared to time-matched controls [3] | inhibition of longitudinal muscle contractions relative to time-matched controls ([4]; drug 10 μM) | inhibition of circular muscle contractions relative to time-matched controls ([5]; drug 10 μM) | inhibition at 1 µM ([4]; Homo sapiens, drug 1 μM, read-out: inhibition of longitudinal muscle contractions relative to time-matched controls) | inhibition at 1 µM ([5]; Homo sapiens, drug 1 μM, read-out: inhibition of circular muscle contractions relative to time-matched controls)
1 | CC(NCCC(c1ccccc1)c1ccccc1)c1ccccc1 (stereo not drawn) [Fendiline, fendiline hydrochloride] | 3800 ± 900 nM | 17.4 ± 5.8 µM | 35% | 73-80% | 0-20% | – | –
2 | COC(=O)C1=C(C)NC(C)=C(C(=O)OC)C1c1ccccc1[N+](=O)[O-] [Nifedipine, nifedipine] | 2.16 ± 0.8 nM | 0.00219 ± 0.0005 µM | – | – | – | 66 to 73% | 66 to 73%
